Laboratory results reported in ChEMBL document CHEMBL5291721, “A preclinical secondary pharmacology resource illuminates target-adverse drug reaction associations of marketed drugs” (Nat Commun, 2023).

Columns and labels:
Cannabinoid receptor 1 = Cannabinoid receptor 1 (Homo sapiens, UniProt P21554); type: functional, cell-based
Histamine H3 receptor = Histamine H3 receptor (Homo sapiens, UniProt Q9Y5N1)
Histamine H1 receptor = Histamine H1 receptor (Homo sapiens, UniProt P35367)
[1] = target: 5-hydroxytryptamine receptor 2A (Homo sapiens, UniProt P28223); type: functional, cell-based
5-hydroxytryptamine receptor 2A, sequence (P28223 whole entry): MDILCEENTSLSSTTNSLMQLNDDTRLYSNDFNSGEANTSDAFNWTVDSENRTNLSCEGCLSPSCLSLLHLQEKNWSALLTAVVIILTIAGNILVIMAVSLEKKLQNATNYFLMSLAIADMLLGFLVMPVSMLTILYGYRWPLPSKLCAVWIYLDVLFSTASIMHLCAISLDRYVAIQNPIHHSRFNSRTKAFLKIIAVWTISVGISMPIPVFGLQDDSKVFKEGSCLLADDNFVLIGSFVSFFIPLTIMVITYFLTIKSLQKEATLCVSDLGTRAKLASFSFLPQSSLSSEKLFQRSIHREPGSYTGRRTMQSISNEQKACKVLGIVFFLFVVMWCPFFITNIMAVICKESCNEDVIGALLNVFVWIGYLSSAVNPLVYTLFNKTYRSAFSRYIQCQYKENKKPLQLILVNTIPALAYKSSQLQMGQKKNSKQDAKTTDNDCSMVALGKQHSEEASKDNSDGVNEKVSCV

[2] = target: Glutamate receptor ionotropic, NMDA 1 (Rattus norvegicus, UniProt P35439)
[3] = target: Kappa-type opioid receptor (Homo sapiens, UniProt P41145)
Kappa-type opioid receptor, sequence (P41145 whole entry): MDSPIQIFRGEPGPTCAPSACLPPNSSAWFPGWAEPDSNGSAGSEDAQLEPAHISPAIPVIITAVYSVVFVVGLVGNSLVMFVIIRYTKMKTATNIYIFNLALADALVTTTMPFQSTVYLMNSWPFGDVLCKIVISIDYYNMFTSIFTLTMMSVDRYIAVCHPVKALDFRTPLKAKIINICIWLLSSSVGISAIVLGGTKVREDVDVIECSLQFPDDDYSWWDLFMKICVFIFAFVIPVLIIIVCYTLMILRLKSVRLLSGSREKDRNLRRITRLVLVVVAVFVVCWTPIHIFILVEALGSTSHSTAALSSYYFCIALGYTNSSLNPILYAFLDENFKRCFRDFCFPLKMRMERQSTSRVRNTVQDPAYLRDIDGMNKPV

Endothelin-1 receptor = target: T1, Endothelin-1 receptor (Homo sapiens, UniProt P25101)
T1 sequence (P25101 whole entry): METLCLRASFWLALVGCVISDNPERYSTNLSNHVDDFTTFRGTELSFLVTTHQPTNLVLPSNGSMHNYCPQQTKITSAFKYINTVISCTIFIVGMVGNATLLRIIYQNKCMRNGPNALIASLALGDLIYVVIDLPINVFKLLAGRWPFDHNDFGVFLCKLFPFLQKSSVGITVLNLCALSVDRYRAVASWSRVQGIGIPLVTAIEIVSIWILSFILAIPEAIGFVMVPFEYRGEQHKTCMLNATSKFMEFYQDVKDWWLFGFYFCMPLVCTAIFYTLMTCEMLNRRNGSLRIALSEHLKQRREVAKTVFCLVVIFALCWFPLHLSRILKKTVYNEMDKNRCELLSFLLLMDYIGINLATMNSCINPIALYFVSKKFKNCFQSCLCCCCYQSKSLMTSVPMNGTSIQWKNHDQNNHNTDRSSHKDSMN

[4] = target: T2, 5-hydroxytryptamine receptor 1A (Homo sapiens, UniProt P08908); type: functional, cell-based
T2 sequence (P08908 whole entry): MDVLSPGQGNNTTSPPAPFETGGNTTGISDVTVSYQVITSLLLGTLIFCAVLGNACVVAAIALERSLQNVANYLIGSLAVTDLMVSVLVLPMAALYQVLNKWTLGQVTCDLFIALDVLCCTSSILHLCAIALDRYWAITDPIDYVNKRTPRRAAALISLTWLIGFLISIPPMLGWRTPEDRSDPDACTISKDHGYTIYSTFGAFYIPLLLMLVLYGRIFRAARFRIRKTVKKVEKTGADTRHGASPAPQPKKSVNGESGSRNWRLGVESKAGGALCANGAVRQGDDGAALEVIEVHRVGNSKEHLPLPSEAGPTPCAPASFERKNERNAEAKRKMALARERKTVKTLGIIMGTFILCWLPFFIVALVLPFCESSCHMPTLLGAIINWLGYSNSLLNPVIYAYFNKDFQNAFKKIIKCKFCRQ

[5] = target: 5-hydroxytryptamine receptor 2B (Homo sapiens, UniProt P41595); type: functional, cell-based
5-hydroxytryptamine receptor 2B, sequence (P41595 whole entry): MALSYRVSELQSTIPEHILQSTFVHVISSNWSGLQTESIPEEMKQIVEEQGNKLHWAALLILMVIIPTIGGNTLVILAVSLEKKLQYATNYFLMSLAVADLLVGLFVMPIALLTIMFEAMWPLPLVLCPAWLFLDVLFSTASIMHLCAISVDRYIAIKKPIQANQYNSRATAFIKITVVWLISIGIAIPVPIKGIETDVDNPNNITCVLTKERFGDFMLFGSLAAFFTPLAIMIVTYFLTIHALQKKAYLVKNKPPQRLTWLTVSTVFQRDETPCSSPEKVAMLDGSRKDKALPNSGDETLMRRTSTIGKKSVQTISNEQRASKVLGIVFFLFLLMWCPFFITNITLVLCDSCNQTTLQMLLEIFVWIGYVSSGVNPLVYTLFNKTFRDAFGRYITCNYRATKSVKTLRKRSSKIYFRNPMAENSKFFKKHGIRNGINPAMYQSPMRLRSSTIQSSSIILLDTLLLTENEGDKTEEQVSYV

[6] = target: T3, Alpha-1A adrenergic receptor (Homo sapiens, UniProt P35348); type: functional, cell-based
T3 sequence (P35348 whole entry): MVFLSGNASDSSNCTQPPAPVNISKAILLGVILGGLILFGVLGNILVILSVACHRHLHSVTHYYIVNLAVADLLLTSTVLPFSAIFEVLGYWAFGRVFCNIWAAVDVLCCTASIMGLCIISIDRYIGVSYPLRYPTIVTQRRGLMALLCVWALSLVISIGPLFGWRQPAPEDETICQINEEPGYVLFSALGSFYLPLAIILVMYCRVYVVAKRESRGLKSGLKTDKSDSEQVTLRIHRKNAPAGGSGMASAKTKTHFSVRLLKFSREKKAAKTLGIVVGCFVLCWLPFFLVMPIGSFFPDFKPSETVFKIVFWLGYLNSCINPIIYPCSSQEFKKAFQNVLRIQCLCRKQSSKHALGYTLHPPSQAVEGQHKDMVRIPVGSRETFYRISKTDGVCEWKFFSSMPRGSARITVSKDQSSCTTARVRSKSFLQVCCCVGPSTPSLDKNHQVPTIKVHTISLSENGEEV

[7] = target: T4, Muscarinic acetylcholine receptor M2 (Homo sapiens, UniProt P08172); type: functional, cell-based
T4 sequence (P08172 whole entry): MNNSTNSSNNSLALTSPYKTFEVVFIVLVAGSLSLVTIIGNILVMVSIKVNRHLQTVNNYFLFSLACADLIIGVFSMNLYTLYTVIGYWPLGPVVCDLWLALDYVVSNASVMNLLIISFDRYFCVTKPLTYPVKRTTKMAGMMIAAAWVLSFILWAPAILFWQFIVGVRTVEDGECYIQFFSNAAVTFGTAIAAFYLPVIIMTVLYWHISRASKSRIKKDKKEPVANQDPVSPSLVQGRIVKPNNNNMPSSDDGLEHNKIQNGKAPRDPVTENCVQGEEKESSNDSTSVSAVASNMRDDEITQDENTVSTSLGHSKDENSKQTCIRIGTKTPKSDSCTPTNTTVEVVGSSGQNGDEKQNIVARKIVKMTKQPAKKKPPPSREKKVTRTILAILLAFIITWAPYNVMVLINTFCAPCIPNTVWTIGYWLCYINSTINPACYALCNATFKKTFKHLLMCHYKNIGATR

[8] = target: Beta-1 adrenergic receptor (Homo sapiens, UniProt P08588); type: functional
Beta-1 adrenergic receptor, sequence (P08588 whole entry): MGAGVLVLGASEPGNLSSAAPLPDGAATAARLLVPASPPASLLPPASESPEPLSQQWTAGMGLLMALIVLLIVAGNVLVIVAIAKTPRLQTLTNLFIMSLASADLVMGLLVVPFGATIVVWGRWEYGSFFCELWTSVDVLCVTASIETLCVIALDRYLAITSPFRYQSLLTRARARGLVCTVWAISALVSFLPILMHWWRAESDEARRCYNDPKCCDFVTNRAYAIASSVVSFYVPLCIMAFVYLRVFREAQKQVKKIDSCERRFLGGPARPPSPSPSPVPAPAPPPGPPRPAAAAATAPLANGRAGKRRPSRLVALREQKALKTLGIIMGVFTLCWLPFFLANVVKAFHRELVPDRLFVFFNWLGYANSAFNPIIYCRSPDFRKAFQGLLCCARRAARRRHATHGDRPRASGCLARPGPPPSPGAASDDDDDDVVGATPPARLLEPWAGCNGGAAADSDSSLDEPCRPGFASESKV

[9] = target: T5, Alpha-2B adrenergic receptor (Homo sapiens, UniProt P18089)
T5 sequence (P18089 whole entry): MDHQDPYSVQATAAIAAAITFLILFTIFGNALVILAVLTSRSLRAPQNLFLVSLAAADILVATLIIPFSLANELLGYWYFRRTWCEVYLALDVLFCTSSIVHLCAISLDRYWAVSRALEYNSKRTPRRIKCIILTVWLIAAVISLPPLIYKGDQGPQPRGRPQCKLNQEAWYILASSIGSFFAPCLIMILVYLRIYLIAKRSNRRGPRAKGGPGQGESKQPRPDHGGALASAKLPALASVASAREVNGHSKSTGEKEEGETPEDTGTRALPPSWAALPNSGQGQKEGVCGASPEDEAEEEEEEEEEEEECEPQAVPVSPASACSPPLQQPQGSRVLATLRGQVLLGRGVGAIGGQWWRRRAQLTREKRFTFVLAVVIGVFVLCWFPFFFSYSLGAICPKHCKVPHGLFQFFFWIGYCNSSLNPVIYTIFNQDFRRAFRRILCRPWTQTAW

[10] = target: Delta-type opioid receptor (Homo sapiens, UniProt P41143)
Delta-type opioid receptor, sequence (P41143 whole entry): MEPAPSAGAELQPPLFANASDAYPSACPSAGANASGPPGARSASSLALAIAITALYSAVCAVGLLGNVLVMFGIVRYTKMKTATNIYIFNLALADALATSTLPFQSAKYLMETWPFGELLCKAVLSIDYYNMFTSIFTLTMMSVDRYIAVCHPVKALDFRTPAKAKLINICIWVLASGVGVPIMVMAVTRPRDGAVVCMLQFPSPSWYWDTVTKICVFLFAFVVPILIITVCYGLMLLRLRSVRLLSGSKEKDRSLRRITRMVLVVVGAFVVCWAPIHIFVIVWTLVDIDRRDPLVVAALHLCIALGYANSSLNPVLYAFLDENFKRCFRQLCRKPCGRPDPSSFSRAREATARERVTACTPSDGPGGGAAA
Also: assay procedure not described here.

Histamine H1 receptor, sequence (P35367 whole entry): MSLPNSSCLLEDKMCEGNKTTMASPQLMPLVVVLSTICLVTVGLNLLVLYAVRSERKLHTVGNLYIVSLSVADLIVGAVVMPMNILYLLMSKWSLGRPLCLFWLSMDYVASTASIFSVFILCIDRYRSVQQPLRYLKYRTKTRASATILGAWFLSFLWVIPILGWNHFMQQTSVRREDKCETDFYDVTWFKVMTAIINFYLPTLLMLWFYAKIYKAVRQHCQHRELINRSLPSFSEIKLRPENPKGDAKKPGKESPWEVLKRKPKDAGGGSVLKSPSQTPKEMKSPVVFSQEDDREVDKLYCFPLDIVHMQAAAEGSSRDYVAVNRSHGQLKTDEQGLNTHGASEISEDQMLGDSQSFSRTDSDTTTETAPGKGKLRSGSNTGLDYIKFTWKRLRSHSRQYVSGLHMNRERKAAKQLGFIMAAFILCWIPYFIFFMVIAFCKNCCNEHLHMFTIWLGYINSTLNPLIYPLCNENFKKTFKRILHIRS
Cannabinoid receptor 1, sequence (P21554 whole entry): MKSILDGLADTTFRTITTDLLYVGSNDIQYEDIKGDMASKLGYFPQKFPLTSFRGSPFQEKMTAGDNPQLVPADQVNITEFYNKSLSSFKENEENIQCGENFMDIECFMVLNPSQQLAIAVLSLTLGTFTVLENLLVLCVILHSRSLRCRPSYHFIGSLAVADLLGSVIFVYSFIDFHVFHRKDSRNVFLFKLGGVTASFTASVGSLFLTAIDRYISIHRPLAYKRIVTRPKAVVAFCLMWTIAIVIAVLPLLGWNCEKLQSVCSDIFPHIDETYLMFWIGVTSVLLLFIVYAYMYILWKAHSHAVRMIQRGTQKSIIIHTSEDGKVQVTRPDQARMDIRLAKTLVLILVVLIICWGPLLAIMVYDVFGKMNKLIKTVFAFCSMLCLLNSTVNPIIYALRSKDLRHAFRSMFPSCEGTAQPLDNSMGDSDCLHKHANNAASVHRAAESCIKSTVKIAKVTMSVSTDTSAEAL
Histamine H3 receptor, sequence (Q9Y5N1 whole entry): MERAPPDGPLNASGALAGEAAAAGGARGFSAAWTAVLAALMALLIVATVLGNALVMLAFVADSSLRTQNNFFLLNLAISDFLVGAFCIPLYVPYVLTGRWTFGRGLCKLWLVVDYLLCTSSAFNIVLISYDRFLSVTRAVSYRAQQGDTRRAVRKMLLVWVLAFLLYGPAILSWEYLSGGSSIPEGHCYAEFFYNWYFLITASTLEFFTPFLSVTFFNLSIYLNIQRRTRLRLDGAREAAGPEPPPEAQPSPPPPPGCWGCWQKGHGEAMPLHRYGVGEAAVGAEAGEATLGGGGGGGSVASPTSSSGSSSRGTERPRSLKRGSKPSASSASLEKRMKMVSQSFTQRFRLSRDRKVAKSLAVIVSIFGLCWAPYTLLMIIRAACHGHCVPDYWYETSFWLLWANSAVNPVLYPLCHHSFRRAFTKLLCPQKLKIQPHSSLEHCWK

Row | Compound | AC50 (Cannabinoid receptor 1) [µM] | AC50 (Histamine H3 receptor) [µM] | AC50 (Histamine H1 receptor) [µM] | AC50 [1] [µM] | AC50 [2] [µM] | AC50 [3] [µM] | AC50 (Endothelin-1 receptor) [µM] | AC50 [4] [µM] | AC50 [5] [µM] | AC50 [6] [µM] | AC50 [7] [µM] | AC50 [8] [µM] | AC50 [9] [µM] | AC50 [10] [µM]
1 | O=C(C[S+]([O-])C(c1ccccc1)c1ccccc1)NO (configuration not stated) | > 30 | > 30 | > 30 | > 30 | > 30 | > 30 | > 30 | > 30 | > 30 | > 30 | > 30 | > 30 | > 30 | > 30
2 | Nc1ncnc2c1ncn2[C@@H]1O[C@H](COP(=O)(O)O)[C@@H](O)[C@H]1O [ADENOSINE PHOSPHATE] | > 30 | > 30 | > 30 | > 30 | > 30 | > 30 | > 30 | > 30 | > 30 | > 30 | > 30 | > 30 | > 30 | > 30
3 | CCCC(CCC)C(=O)O[C@H]1C[C@H]2CC[C@@H](C1)[N+]2(C)C [ANISOTROPINE] | > 30 | > 30 | > 30 | > 30 | > 30 | > 30 | > 30 | > 30 | > 30 | > 30 | 0.63 | > 30 | > 30 | > 30
4 | NC(CO)C(=O)NNCc1ccc(O)c(O)c1O (configuration not stated) [BENSERAZIDE] | > 30 | > 10 | > 10 | > 30 | > 10 | > 10 | > 30 | > 10 | > 10 | > 30 | > 10 | > 10 | > 10 | 30
5 | CCC(C(=O)O)c1ccc(CC(C)C)cc1 (configuration not stated) [BUTIBUFEN] | > 30 | > 30 | > 30 | > 30 | > 30 | > 30 | > 30 | > 30 | > 30 | > 30 | > 30 | > 30 | > 30 | > 30
6 | CN(C)C(=O)OC1N=C(c2ccccc2)c2cc(Cl)ccc2N(C)C1=O (configuration not stated) [CAMAZEPAM] | > 30 | > 10 | > 10 | > 30 | > 10 | > 10 | > 30 | > 10 | > 10 | > 30 | > 10 | > 10 | > 10 | > 10
7 | CCCCCOC(=O)Nc1nc(=O)n([C@@H]2O[C@H](C)[C@@H](O)[C@H]2O)cc1F [CAPECITABINE] | > 30 | > 30 | > 30 | > 30 | > 30 | > 30 | > 30 | > 30 | > 30 | > 30 | > 30 | > 30 | > 30 | > 30
8 | CCOC(=O)[C@H](CCc1ccccc1)N[C@H]1CCCN2CCC[C@@H](C(=O)O)N2C1=O [CILAZAPRIL] | > 30 | > 30 | > 30 | > 30 | > 30 | > 30 | > 30 | > 30 | > 30 | > 30 | > 30 | > 30 | > 30 | > 30
9 | CCOc1cc(N)c([N+](=O)[O-])cc1C(=O)NC1CCN(CC2CC=CCC2)CC1 (configuration not stated) [CINITAPRIDE] | > 30 | 5.9 | 27 | > 30 | > 30 | 9.1 | > 30 | > 30 | > 30 | > 30 | > 30 | > 30 | 9.3 | > 30
10 | COC(=O)[C@H]1[C@@H](OC(=O)c2ccccc2)C[C@@H]2CC[C@H]1N2C [COCAINE] | > 30 | > 30 | > 30 | > 30 | > 30 | > 30 | > 30 | > 30 | > 30 | > 30 | > 30 | > 30 | > 30 | > 30
11 | [H]/N=C(/N)c1ccc(NCc2nc3cc(C(=O)N(CCC(=O)O)c4ccccn4)ccc3n2C)cc1 [DABIGATRAN] | > 30 | > 30 | > 30 | > 30 | > 30 | > 30 | > 30 | > 30 | > 30 | > 30 | > 30 | > 30 | > 30 | > 30
12 | O=C1CN=C(c2ccccc2)c2cc(Cl)ccc2N1CC(F)(F)F [HALAZEPAM] | > 30 | > 30 | > 30 | > 30 | > 30 | 20 | > 30 | > 30 | > 30 | > 30 | > 30 | > 30 | > 30 | > 30
13 | CCCCCN(C)CCC(O)(P(=O)(O)O)P(=O)(O)O [IBANDRONIC ACID] | > 30 | > 30 | > 30 | > 30 | > 30 | > 30 | > 30 | > 30 | > 30 | > 30 | > 30 | > 30 | > 30 | > 30
